Where a SMILES comes first, the peptide text is derived from it. [ ]: non-standard residue; d: D form. The star is where a group is joined. X1 = Cc1ccc(Nc2ncc3c(n2)N(C)C(=O)N(c2cc(C(=O)*)ccc2C)C3)cn1; Aib = CC(C)(N)C(=O)O
Key:
Experiment in all cases: kinase selectivity profiling
Format in all cases: biochemical
Settings in all cases: 10µM ATP, read-out: % inhibition (relative to DMSO)
PLK2 = target: T1, PLK2 (Homo sapiens, UniProt Q9NYY3)
T1 construct: purchased Reaction Biology Corp
Procedure: (§1) Full panel kinase profiling and kinase IC50 measurement were performed by using Reaction Biology Corp. (San Diego, USA).

STK22D/TSSK1 = target: T2, STK22D/TSSK1 (Homo sapiens, UniProt Q9BXA7)
T2 construct: purchased Reaction Biology Corp
Procedure: as §1

SIK1 = target: T3, SIK1 (Homo sapiens, UniProt P57059)
T3 construct: purchased Reaction Biology Corp
Procedure: as §1

HPK1/MAP4K1 = target: T4, HPK1/MAP4K1 (Homo sapiens, UniProt Q92918)
T4 construct: purchased Reaction Biology Corp
Procedure: as §1

TYK2 = target: T5, TYK2 (Homo sapiens, UniProt P29597)
T5 construct: purchased Reaction Biology Corp
Procedure: as §1

P38d/MAPK13 = target: T6, P38d/MAPK13 (Homo sapiens, UniProt O15264)
T6 construct: purchased Reaction Biology Corp
Procedure: as §1

RIPK2 = target: T7, RIPK2 (Homo sapiens, UniProt O43353)
T7 construct: purchased Reaction Biology Corp
Procedure: as §1

CK1d = target: T8, CK1d (Homo sapiens, UniProt P48730)
T8 construct: purchased Reaction Biology Corp
Procedure: as §1

BRK = target: T9, BRK (Homo sapiens, UniProt Q13882)
T9 construct: purchased Reaction Biology Corp
Procedure: as §1

PKG2/PRKG2 = target: T10, PKG2/PRKG2 (Homo sapiens, UniProt Q13237)
T10 construct: purchased Reaction Biology Corp
Procedure: as §1

ZAK/MLTK = target: T11, ZAK/MLTK (Homo sapiens, UniProt Q9NYL2)
T11 construct: purchased Reaction Biology Corp
Procedure: as §1

SYK = target: T12, SYK (Homo sapiens, UniProt P43405)
T12 construct: purchased Reaction Biology Corp
Procedure: as §1

PKCa = target: T13, PKCa (Homo sapiens, UniProt P17252)
T13 construct: purchased Reaction Biology Corp
Procedure: as §1

WNK2 = target: T14, WNK2 (Homo sapiens, UniProt Q9Y3S1)
T14 construct: purchased Reaction Biology Corp
Procedure: as §1

FGFR4 = target: T15, FGFR4 (Homo sapiens, UniProt P22455)
T15 construct: purchased Reaction Biology Corp
Procedure: as §1

PLK1 = target: T16, PLK1 (Homo sapiens, UniProt P53350)
T16 construct: purchased Reaction Biology Corp
Procedure: as §1

KHS/MAP4K5 = target: T17, KHS/MAP4K5 (Homo sapiens, UniProt Q9Y4K4)
T17 construct: purchased Reaction Biology Corp
Procedure: as §1

NEK8 = target: T18, NEK8 (Homo sapiens, UniProt Q86SG6)
T18 construct: purchased Reaction Biology Corp
Procedure: as §1

OSR1/OXSR1 = target: T19, OSR1/OXSR1 (Homo sapiens, UniProt O95747)
T19 construct: purchased Reaction Biology Corp
Procedure: as §1

CLK1 = target: T20, CLK1 (Homo sapiens, UniProt P49759)
T20 construct: purchased Reaction Biology Corp
Procedure: as §1

TXK = target: T21, TXK (Homo sapiens, UniProt P42681)
T21 construct: purchased Reaction Biology Corp
Procedure: as §1

SRPK1 = target: T22, SRPK1 (Homo sapiens, UniProt Q96SB4)
T22 construct: purchased Reaction Biology Corp
Procedure: as §1

EPHB2 = target: T23, EPHB2 (Homo sapiens, UniProt P29323)
T23 construct: purchased Reaction Biology Corp
Procedure: as §1

MYLK4 = target: T24, MYLK4 (Homo sapiens, UniProt Q86YV6)
T24 construct: purchased Reaction Biology Corp
Procedure: as §1

PHKg2 = target: T25, PHKg2 (Homo sapiens, UniProt P15735)
T25 construct: purchased Reaction Biology Corp
Procedure: as §1

c-MER = target: T26, c-MER (Homo sapiens, UniProt Q12866)
T26 construct: purchased Reaction Biology Corp
Procedure: as §1

TAK1 = target: T27, TAK1 (Homo sapiens, UniProt O43318)
T27 construct: purchased Reaction Biology Corp
Procedure: as §1

MARK3 = target: T28, MARK3 (Homo sapiens, UniProt P27448)
T28 construct: purchased Reaction Biology Corp
Procedure: as §1

IR = target: T29, IR (Homo sapiens, UniProt P06213)
T29 construct: purchased Reaction Biology Corp
Procedure: as §1

YSK4/MAP3K19 = target: T30, YSK4/MAP3K19 (Homo sapiens, UniProt Q56UN5)
T30 construct: purchased Reaction Biology Corp
Procedure: as §1

MEK5 = target: T31, MEK5 (Homo sapiens, UniProt Q13163)
T31 construct: purchased Reaction Biology Corp
Procedure: as §1

DYRK1/DYRK1A = target: T32, DYRK1/DYRK1A (Homo sapiens, UniProt Q13627)
T32 construct: purchased Reaction Biology Corp
Procedure: as §1

JNK3 = target: T33, JNK3 (Homo sapiens, UniProt P53779)
T33 construct: purchased Reaction Biology Corp
Procedure: as §1

CAMK2a = target: T34, CAMK2a (Homo sapiens, UniProt Q9UQM7)
T34 construct: purchased Reaction Biology Corp
Procedure: as §1

PHKg1 = target: T35, PHKg1 (Homo sapiens, UniProt Q16816)
T35 construct: purchased Reaction Biology Corp
Procedure: as §1

MSSK1/STK23 = target: T36, MSSK1/STK23 (Homo sapiens, UniProt Q9UPE1)
T36 construct: purchased Reaction Biology Corp
Procedure: as §1

DYRK4 = target: T37, DYRK4 (Homo sapiens, UniProt Q9NR20)
T37 construct: purchased Reaction Biology Corp
Procedure: as §1

ALK = target: T38, ALK (Homo sapiens, UniProt Q9UM73)
T38 construct: purchased Reaction Biology Corp
Procedure: as §1

STK33 = target: T39, STK33 (Homo sapiens, UniProt Q9BYT3)
T39 construct: purchased Reaction Biology Corp
Procedure: as §1

IKKe/IKBKE = target: T40, IKKe/IKBKE (Homo sapiens, UniProt Q14164)
T40 construct: purchased Reaction Biology Corp
Procedure: as §1

CHK2 = target: T41, CHK2 (Homo sapiens, UniProt O96017)
T41 construct: purchased Reaction Biology Corp
Procedure: as §1

PAK4 = target: T42, PAK4 (Homo sapiens, UniProt O96013)
T42 construct: purchased Reaction Biology Corp
Procedure: as §1

ASK1/MAP3K5 = target: T43, ASK1/MAP3K5 (Homo sapiens, UniProt Q99683)
T43 construct: purchased Reaction Biology Corp
Procedure: as §1

T3 sequence (P57059 whole entry): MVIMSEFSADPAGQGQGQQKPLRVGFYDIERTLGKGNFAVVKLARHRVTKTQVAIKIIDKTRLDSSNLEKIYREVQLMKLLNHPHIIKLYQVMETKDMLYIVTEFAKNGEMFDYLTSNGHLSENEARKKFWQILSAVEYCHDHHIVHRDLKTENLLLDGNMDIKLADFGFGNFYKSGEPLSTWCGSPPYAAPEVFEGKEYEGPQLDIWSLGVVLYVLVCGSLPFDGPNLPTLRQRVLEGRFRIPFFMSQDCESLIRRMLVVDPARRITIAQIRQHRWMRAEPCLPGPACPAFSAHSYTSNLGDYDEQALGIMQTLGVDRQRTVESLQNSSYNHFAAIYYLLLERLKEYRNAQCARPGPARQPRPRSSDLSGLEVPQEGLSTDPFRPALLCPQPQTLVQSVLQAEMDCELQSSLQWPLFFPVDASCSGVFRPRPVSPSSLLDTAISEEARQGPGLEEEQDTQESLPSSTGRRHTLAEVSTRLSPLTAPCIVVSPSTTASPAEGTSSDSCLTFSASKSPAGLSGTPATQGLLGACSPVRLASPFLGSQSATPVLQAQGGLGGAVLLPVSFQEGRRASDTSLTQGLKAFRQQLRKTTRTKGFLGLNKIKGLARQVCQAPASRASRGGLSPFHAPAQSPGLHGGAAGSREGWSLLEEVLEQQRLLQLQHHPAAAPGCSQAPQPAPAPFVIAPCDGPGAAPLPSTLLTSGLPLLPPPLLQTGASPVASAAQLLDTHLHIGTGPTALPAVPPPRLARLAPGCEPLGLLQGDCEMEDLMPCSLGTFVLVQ
T23 sequence (P29323 19-1055): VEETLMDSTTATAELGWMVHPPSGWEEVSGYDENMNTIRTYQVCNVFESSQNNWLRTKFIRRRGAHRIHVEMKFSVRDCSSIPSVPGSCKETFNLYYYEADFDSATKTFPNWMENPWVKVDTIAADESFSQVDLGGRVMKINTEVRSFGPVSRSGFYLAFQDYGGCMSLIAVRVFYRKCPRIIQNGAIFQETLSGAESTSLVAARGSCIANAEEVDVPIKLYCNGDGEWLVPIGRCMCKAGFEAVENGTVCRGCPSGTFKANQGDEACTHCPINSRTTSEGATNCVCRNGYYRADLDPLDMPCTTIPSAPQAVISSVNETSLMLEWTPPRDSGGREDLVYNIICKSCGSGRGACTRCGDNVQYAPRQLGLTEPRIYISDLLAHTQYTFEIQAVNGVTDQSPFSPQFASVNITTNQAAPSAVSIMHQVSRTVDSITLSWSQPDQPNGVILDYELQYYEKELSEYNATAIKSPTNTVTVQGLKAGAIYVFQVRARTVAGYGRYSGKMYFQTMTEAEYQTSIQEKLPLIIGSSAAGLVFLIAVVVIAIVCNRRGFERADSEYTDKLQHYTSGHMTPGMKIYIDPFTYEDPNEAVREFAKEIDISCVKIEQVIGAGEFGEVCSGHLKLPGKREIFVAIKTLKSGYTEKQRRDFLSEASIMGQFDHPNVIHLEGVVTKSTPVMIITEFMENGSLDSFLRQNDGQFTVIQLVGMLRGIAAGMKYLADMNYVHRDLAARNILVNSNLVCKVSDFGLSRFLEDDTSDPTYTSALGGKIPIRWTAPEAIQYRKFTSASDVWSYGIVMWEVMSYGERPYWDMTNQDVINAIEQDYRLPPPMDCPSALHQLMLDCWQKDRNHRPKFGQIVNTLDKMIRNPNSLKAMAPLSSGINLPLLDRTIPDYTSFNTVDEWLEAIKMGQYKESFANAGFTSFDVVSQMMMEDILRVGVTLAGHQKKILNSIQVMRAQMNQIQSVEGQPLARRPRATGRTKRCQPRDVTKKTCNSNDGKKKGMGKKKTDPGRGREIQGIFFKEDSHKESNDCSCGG
T8 sequence (P48730 whole entry): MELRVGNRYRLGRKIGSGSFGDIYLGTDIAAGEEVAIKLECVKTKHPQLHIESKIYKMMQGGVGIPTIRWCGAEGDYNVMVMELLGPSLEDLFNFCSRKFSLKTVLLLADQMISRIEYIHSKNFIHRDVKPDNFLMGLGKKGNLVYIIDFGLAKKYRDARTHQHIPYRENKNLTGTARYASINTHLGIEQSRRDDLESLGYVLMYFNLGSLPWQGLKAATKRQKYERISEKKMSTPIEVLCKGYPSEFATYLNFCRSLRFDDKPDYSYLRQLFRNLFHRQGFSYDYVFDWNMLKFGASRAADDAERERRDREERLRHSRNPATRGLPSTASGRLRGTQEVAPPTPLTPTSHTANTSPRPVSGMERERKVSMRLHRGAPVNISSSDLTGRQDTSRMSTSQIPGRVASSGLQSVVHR
T18 sequence (Q86SG6 whole entry): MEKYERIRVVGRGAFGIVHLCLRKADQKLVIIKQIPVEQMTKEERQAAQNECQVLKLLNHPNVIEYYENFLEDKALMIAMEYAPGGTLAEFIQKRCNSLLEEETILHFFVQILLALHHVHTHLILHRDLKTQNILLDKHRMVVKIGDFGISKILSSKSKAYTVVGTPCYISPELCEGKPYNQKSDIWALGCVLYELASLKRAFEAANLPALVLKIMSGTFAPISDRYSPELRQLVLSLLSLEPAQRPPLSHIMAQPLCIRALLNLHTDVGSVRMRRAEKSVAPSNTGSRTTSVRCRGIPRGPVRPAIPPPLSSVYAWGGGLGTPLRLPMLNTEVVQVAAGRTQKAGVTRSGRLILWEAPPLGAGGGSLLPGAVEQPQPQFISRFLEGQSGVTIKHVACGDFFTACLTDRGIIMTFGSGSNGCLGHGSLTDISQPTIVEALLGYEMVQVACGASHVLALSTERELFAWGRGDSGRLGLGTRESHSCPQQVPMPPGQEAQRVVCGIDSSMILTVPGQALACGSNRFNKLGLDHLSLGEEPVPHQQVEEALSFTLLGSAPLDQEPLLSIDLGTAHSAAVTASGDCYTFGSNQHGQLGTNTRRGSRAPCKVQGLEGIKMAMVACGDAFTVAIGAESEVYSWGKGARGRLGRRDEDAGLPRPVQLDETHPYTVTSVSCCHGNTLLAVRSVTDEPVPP
T33 sequence (P53779 whole entry): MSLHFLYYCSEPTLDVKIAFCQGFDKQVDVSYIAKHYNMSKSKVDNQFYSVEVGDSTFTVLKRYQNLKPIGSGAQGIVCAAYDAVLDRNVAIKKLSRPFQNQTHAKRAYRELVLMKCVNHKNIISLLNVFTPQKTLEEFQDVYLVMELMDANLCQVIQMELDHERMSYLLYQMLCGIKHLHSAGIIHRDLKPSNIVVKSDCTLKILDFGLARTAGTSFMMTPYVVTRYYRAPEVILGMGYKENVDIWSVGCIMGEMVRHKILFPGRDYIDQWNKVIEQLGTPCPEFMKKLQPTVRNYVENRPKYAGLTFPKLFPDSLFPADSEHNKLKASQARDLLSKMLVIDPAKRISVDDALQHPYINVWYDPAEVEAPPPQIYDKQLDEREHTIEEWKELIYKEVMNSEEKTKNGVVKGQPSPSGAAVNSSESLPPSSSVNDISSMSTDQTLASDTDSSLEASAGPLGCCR
T25 sequence (P15735 whole entry): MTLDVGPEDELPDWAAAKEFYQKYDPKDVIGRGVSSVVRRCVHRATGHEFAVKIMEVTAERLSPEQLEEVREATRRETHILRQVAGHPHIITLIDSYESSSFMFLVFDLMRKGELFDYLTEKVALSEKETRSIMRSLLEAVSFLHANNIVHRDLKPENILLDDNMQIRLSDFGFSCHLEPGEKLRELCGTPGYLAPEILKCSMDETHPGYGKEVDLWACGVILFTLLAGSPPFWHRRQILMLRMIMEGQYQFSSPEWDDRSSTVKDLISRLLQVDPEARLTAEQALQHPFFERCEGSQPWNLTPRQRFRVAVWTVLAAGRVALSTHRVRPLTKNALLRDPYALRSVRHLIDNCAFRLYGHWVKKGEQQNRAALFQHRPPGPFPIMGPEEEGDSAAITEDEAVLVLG
T24 sequence (Q86YV6 whole entry): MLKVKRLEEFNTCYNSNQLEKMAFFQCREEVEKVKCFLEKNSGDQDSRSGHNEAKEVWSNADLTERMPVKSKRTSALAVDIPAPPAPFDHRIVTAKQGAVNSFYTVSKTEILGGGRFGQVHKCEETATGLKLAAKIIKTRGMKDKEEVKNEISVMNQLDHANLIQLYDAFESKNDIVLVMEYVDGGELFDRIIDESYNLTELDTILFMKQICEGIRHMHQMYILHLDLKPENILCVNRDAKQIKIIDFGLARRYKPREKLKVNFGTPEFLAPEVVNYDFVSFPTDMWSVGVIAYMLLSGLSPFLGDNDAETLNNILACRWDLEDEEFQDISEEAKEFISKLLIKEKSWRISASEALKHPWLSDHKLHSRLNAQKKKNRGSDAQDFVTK
T36 sequence (Q9UPE1 whole entry): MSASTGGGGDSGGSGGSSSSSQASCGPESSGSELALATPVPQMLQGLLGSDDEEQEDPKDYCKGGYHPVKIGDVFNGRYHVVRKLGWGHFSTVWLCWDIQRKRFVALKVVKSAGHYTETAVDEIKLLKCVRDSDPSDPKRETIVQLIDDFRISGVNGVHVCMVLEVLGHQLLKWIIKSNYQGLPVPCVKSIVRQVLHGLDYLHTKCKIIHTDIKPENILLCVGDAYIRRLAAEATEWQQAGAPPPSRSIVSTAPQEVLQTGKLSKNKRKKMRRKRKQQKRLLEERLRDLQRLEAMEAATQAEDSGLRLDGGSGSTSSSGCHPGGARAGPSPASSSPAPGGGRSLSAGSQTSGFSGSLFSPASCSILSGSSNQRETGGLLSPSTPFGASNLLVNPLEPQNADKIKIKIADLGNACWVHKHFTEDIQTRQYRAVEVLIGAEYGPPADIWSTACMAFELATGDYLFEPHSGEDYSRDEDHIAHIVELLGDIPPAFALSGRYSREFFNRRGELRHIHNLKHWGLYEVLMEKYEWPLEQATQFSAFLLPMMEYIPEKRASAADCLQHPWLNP

## Cc1ccc(Nc2ncc3c(n2)N(C)C(=O)N(c2cc(C(=O)N[C@H](C(=O)N4CCC[C@H]4C(=O)NC(C)(C)C(=O)N[C@@H](CC(C)C)C(=O)N(C)C)C(C)C)ccc2C)C3)cn1 [7a, (S)-N-(1-(((S)-1-(dimethylamino)-4-methyl-1-oxopentan-2-yl)amino)-2-methyl-1-oxopropan-2-yl)-1-((4-methyl-3-(1-methyl-7-((6-methylpyridin-3-yl)amino)-2-oxo-1,4-dihydropyrimido[4,5-d]pyrimidin-3(2H)-yl)benzoyl)-L-valyl)pyrrolidine-2-carboxamide] (X1-VP[Aib]L-NMe2)
PLK2
  inhibition at 1 µM: 0%
STK22D/TSSK1
  inhibition at 1 µM: 6%
SIK1
  inhibition at 1 µM: 10%
HPK1/MAP4K1
  inhibition at 1 µM: 0%
TYK2
  inhibition at 1 µM: 1%
P38d/MAPK13
  inhibition at 1 µM: 0%
RIPK2
  inhibition at 1 µM: 1%
CK1d
  inhibition at 1 µM: 11%
BRK
  inhibition at 1 µM: 0%
PKG2/PRKG2
  inhibition at 1 µM: 11%
ZAK/MLTK
  inhibition at 1 µM: 14%
SYK
  inhibition at 1 µM: 0%
PKCa
  inhibition at 1 µM: 0%
WNK2
  inhibition at 1 µM: 7%
FGFR4
  inhibition at 1 µM: 5%
PLK1
  inhibition at 1 µM: 0%
KHS/MAP4K5
  inhibition at 1 µM: 23%
NEK8
  inhibition at 1 µM: 1%
OSR1/OXSR1
  inhibition at 1 µM: 6%
CLK1
  inhibition at 1 µM: 5%
TXK
  inhibition at 1 µM: 0%
SRPK1
  inhibition at 1 µM: 5%
EPHB2
  inhibition at 1 µM: 29%
MYLK4
  inhibition at 1 µM: 8%
PHKg2
  inhibition at 1 µM: 0%
c-MER
  inhibition at 1 µM: 1%
TAK1
  inhibition at 1 µM: 4%
MARK3
  inhibition at 1 µM: 4%
IR
  inhibition at 1 µM: 0%
YSK4/MAP3K19
  inhibition at 1 µM: 0%
MEK5
  inhibition at 1 µM: 50%
DYRK1/DYRK1A
  inhibition at 1 µM: 20%
JNK3
  inhibition at 1 µM: 1%
CAMK2a
  inhibition at 1 µM: 8%
PHKg1
  inhibition at 1 µM: 7%
MSSK1/STK23
  inhibition at 1 µM: 10%
DYRK4
  inhibition at 1 µM: 3%
ALK
  inhibition at 1 µM: 0%
STK33
  inhibition at 1 µM: 0%
IKKe/IKBKE
  inhibition at 1 µM: 3%
CHK2
  inhibition at 1 µM: 4%
PAK4
  inhibition at 1 µM: 0%
ASK1/MAP3K5
  inhibition at 1 µM: 0%
